Results taken from ChEMBL document CHEMBL5579824, “Novel Hsp90-Targeting PROTACs: Enhanced synergy with cisplatin in combination therapy of cervical cancer” (Eur J Med Chem, 2024).
Calls of active or inactive are those of the source. The calls are words filed in the database; no cut-off is given here.

Assays:
SiHa [1] = assay: Synergistic antiproliferative activity against human SiHa cells assessed as combination index at 1 uM incubated for 72 hrs in presence of 0.1 uM cisplatin by CCK-8 assay; format: functional
SiHa [2] = assay: Synergistic antiproliferative activity against human SiHa cells assessed as combination index at 0.05 uM incubated for 72 hrs in presence of 0.01 uM cisplatin by CCK-8 assay; format: functional
SiHa [3] = assay: Synergistic antiproliferative activity against human SiHa cells assessed as combination index at 0.75 uM incubated for 72 hrs in presence of 3.16 uM cisplatin by CCK-8 assay; format: functional
SiHa [4] = assay: Synergistic antiproliferative activity against human SiHa cells assessed as combination index at 0.5 uM incubated for 72 hrs in presence of 31.62 uM cisplatin by CCK-8 assay; format: functional
[5] = target: T1, Protein cereblon/Heat shock protein HSP 90-alpha/Heat shock protein HSP 90-beta (Homo sapiens) (UniProt P07900+P08238+Q96SW2); assay: Protac activity at CRBN/Hsp90 in human SiHa cells assessed as induction of Hsp90 degradation at 0.05 uM incubated for 10 hrs by Western blot analysis; format: cell-based
SiHa [6] = assay: Antiproliferative activity against human SiHa cells assessed as inhibition of clone formation ability incubated for 14 days by crystal violet staining based microscopic analysis; format: functional, cell-based; settings: dose 0.01-1 µM, time 14.0 day
SiHa [7] = assay: Synergistic antiproliferative activity against human SiHa cells assessed as combination index at 5 uM incubated for 72 hrs in presence of 0.32 uM cisplatin by CCK-8 assay; format: functional
SiHa [8] = assay: Synergistic antiproliferative activity against human SiHa cells assessed as combination index at 0.1 uM incubated for 72 hrs in presence of 31.62 uM cisplatin by CCK-8 assay; format: functional
SiHa [9] = assay: Synergistic antiproliferative activity against human SiHa cells assessed as combination index at 10 uM incubated for 72 hrs in presence of 10 uM cisplatin by CCK-8 assay; format: functional
SiHa [10] = assay: Induction of apoptosis in human SiHa cells assessed as necrotic cells at 2.5 uM incubated after 48 hrs by annexin V-FITC/PI staining based flow cytometry (reference value: 0.08 %); format: functional
SiHa [11] = assay: Inhibition of cell migration in human SiHa cells at 0.05 uM measured for 24 to 48 hrs by microscope based wound healing assay; format: functional; settings: time 24-48 hrs
SiHa [12] = assay: Synergistic antiproliferative activity against human SiHa cells assessed as combination index at 10 uM incubated for 72 hrs in presence of 31.62 uM cisplatin by CCK-8 assay; format: functional
SiHa [13] = assay: Synergistic antiproliferative activity against human SiHa cells assessed as combination index at 5 uM incubated for 72 hrs in presence of 0.03 uM cisplatin by CCK-8 assay; format: functional
SiHa [14] = assay: Synergistic antiproliferative activity against human SiHa cells assessed as combination index at 0.75 uM incubated for 72 hrs in presence of 0.32 uM cisplatin by CCK-8 assay; format: functional
SiHa [15] = assay: Synergistic antiproliferative activity against human SiHa cells assessed as combination index at 0.5 uM incubated for 72 hrs in presence of 0.1 uM cisplatin by CCK-8 assay; format: functional
SiHa [16] = assay: Induction of apoptosis in human SiHa cells assessed as viable cells at 0.05 uM incubated after 48 hrs by annexin V-FITC/PI staining based flow cytometry (reference value: 90.4 %); format: functional; settings: read-out: Activity
[17] = target: Serine/threonine-protein kinase mTOR (Homo sapiens) (UniProt P42345); assay: Inhibition of mTOR phosphorylation in human SiHa cells incubated for 10 hrs by Western blot analysis; format: cell-based; settings: dose 0.01-1 µM
SiHa [18] = assay: Synergistic antiproliferative activity against human SiHa cells assessed as combination index at 5 uM incubated for 72 hrs in presence of 31.62 uM cisplatin by CCK-8 assay; format: functional
SiHa [19] = assay: Synergistic antiproliferative activity against human SiHa cells assessed as combination index at 0.75 uM incubated for 72 hrs in presence of 0.1 uM cisplatin by CCK-8 assay; format: functional
SiHa [20] = assay: Induction of apoptosis in human SiHa cells assessed as necrotic cells at 0.05 uM incubated after 48 hrs by annexin V-FITC/PI staining based flow cytometry (reference value: 0.08 %); format: functional
SiHa [21] = assay: Synergistic antiproliferative activity against human SiHa cells assessed as combination index at 1 uM incubated for 72 hrs in presence of 31.62 uM cisplatin by CCK-8 assay; format: functional
SiHa [22] = assay: Synergistic antiproliferative activity against human SiHa cells assessed as combination index at 5 uM incubated for 72 hrs in presence of 0.01 uM cisplatin by CCK-8 assay; format: functional
SiHa [23] = assay: Induction of cell cycle arrest in human SiHa cells assessed as accumulation of cells at S pahse at 0.05 uM incubated after 48 hrs by PI staining based flow cytometry (reference value: 8.51 %); format: functional
SiHa [24] = assay: Synergistic antiproliferative activity against human SiHa cells assessed as combination index at 0.75 uM incubated for 72 hrs in presence of 0.03 uM cisplatin by CCK-8 assay; format: functional
SiHa [25] = assay: Induction of apoptosis in human SiHa cells assessed as late apoptotic cells at 0.05 uM incubated after 48 hrs by annexin V-FITC/PI staining based flow cytometry (reference value: 6.93 %); format: functional
SiHa [26] = assay: Induction of apoptosis in human SiHa cells assessed as late apoptotic cells at 1 uM incubated after 48 hrs by annexin V-FITC/PI staining based flow cytometry (reference value: 6.93 %); format: functional
[27] = target: T1, Protein cereblon/Heat shock protein HSP 90-alpha/Heat shock protein HSP 90-beta (Homo sapiens); assay: Protac activity at CRBN/Hsp90 in human SiHa cells assessed as induction of Hsp90 degradation at 1 uM incubated for 10 hrs by Western blot analysis; format: cell-based
SiHa [28] = assay: Antiproliferative activity against human SiHa cells assessed as reduction in cell viability incubated for 72 hrs by CCK-8 assay; format: functional, cell-based
[29] = target: T1, Protein cereblon/Heat shock protein HSP 90-alpha/Heat shock protein HSP 90-beta (Homo sapiens); assay: Protac activity at CRBN/Hsp90 in human SiHa cells assessed as decrease in AKT protein expression level incubated for 10 hrs by Western blot analysis; format: cell-based; settings: dose 0.01-1 µM
SiHa [30] = assay: Synergistic antitumor activity against human SiHa cells xenografted in BALB/c nude mouse assessed as reduction in Ki67 protein expression at 2 mg/kg, ip co-treated with cisplatin separately for every two days by immunohistochemical analysis; format: functional, organism-based
SiHa [31] = assay: Synergistic antiproliferative activity against human SiHa cells assessed as combination index at 0.1 uM incubated for 72 hrs in presence of 0.03 uM cisplatin by CCK-8 assay; format: functional
SiHa [32] = assay: Synergistic antiproliferative activity against human SiHa cells assessed as combination index at 0.1 uM incubated for 72 hrs in presence of 0.01 uM cisplatin by CCK-8 assay; format: functional
SiHa [33] = assay: Synergistic antitumor activity against human SiHa cells xenografted in BALB/c nude mouse assessed as tumor growth inhibition at 2 mg/kg, ip co-treated with cisplatin separately for every two days; format: functional, organism-based
SiHa [34] = assay: Synergistic antiproliferative activity against human SiHa cells assessed as combination index at 0.1 uM incubated for 72 hrs in presence of 10 uM cisplatin by CCK-8 assay; format: functional
SiHa [35] = assay: Induction of apoptosis in human SiHa cells assessed as viable cells at 10 uM incubated after 48 hrs by annexin V-FITC/PI staining based flow cytometry (reference value: 90.4 %); format: functional; settings: read-out: Activity

## CC1(C)CC(=O)c2c(C(F)(F)F)nn(-c3ccc(C(N)=O)c(N[C@H]4CC[C@H](OC(=O)CNC(=O)CCCCCCCNc5cccc6c5CN(C5CCC(=O)NC5=O)C6=O)CC4)c3)c2C1 (stereo not given in full)
SiHa [1]
  CI: 0.21
SiHa [2]
  CI: 1.83
SiHa [3]
  CI: 0.17
SiHa [4]
  CI: 0.26
[5]
  Activity: Active
SiHa [6]
  inhibition: Dose-Dependent Effect
SiHa [7]
  CI: 0.95
SiHa [8]
  CI: 0.24
SiHa [9]
  CI: 1.1
SiHa [10]
  Activity: 0.68%
SiHa [11]
  inhibition: Active
SiHa [12]
  CI: 0.97
SiHa [13]
  CI: 1.02
SiHa [14]
  CI: 0.17
SiHa [15]
  CI: 0.13
SiHa [16]
  viability at 0.05 µM: 90.1%
[17]
  inhibition: Active
SiHa [18]
  CI: 0.53
SiHa [19]
  CI: 0.18
SiHa [20]
  Activity: 0.1%
SiHa [21]
  CI: 0.27
SiHa [22]
  CI: 1.02
SiHa [23]
  Activity: 10.84%
SiHa [24]
  CI: 0.19
SiHa [25]
  Activity: 7.4%
SiHa [26]
  Activity: 24.2%
[27]
  Activity: Active
SiHa [28]
  IC50: 50 nM
[29]
  Activity: Dose-Dependent Effect
SiHa [30]
  Activity: Active
SiHa [31]
  CI: 0.49
SiHa [32]
  CI: 3.04
SiHa [33]
  TGI: Active
SiHa [34]
  CI: 0.43
SiHa [35]
  viability at 10 µM: 51.9%
